Experimental data reported in the supplement of paper PMC10307832.

Key:
Assay in all cases: relative viability (nuclei count vs DMSO), 5 days (fraction); higher = more cells survive
IDH-C35 + OSI-027 = compound: Cc1ccccc1C(C(=O)NC1CCCCC1)N(C(=O)Cn1ccnc1C)c1cccc(F)c1 [IDH-C35] + COc1cccc2cc(-c3nc([C@H]4CC[C@H](C(=O)O)CC4)n4ncnc(N)c34)[nH]c12 [OSI-027] (partner 0.5 µM)
Procedure, shortened: (§1)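 Lung cancer cell lines were seeded in 1536-well plates and dosed by pin tool the next day, with either a single drug or a fixed anchor-drug dose combined with five library-drug doses (not always all listed) spaced in √10 steps. Five days later, one step fixed the cells and stained their nuclei (final 0.05% Triton X-100, 1% formaldehyde, 1 ug/ml Hoechst), and nuclei were counted on 4× images. Relative viability is the nuclei count in treated wells divided by the count in vehicle wells, and each value is the median of duplicate plates.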

[1] = compound: CC1=C(C(=NN1)C)CC2=C(C3=C(S2)N(C(=O)N(C3=O)C)CC(C)C)C(=O)N4C[C@@H](CO4)O + COc1cc2c(Oc3ccc(NC(=O)C4(C(=O)Nc5ccc(F)cc5)CC4)cc3F)ccnc2cc1OCCCN1CCOCC1 [Foretinib] (partner 0.25 µM)
Procedure, shortened: as §1

IDH-C35 + Pemetrexed = compound: Cc1ccccc1C(C(=O)NC1CCCCC1)N(C(=O)Cn1ccnc1C)c1cccc(F)c1 [IDH-C35] + Nc1nc2[nH]cc(CCc3ccc(C(=O)N[C@@H](CCC(=O)O)C(=O)O)cc3)c2c(=O)[nH]1 [Pemetrexed] (partner 0.2 µM)
Procedure, shortened: as §1

IDH-C35 + Lapatinib = compound: Cc1ccccc1C(C(=O)NC1CCCCC1)N(C(=O)Cn1ccnc1C)c1cccc(F)c1 [IDH-C35] + CS(=O)(=O)CCNCc1ccc(-c2ccc3ncnc(Nc4ccc(OCc5cccc(F)c5)c(Cl)c4)c3c2)o1 [Lapatinib] (partner 2 µM)
Procedure, shortened: as §1

Cell Line | relative viability (IDH-C35 + OSI-027; first compound 0.08 µM) | relative viability (IDH-C35 + OSI-027; first compound 0.253 µM) | relative viability (IDH-C35 + OSI-027; first compound 0.8 µM) | relative viability (IDH-C35 + OSI-027; first compound 2.53 µM) | relative viability (IDH-C35 + OSI-027; first compound 8 µM) | relative viability ([1]; first compound 0.0025 µM) | relative viability ([1]; first compound 0.007906 µM) | relative viability ([1]; first compound 0.025 µM) | relative viability ([1]; first compound 0.07906 µM) | relative viability ([1]; first compound 0.25 µM) | relative viability (IDH-C35 + Pemetrexed; first compound 0.08 µM) | relative viability (IDH-C35 + Pemetrexed; first compound 0.253 µM) | relative viability (IDH-C35 + Pemetrexed; first compound 0.8 µM) | relative viability (IDH-C35 + Pemetrexed; first compound 2.53 µM) | relative viability (IDH-C35 + Pemetrexed; first compound 8 µM) | relative viability (IDH-C35 + Lapatinib; first compound 0.08 µM) | relative viability (IDH-C35 + Lapatinib; first compound 0.253 µM) | relative viability (IDH-C35 + Lapatinib; first compound 0.8 µM) | relative viability (IDH-C35 + Lapatinib; first compound 2.53 µM) | relative viability (IDH-C35 + Lapatinib; first compound 8 µM)
NCI-H2347 | 0.467 | 0.48 | 0.477 | 0.324 | 0.369 | 1.23 | 1.13 | 0.716 | 0.831 | 0.881 | 0.424 | 0.418 | 0.452 | 0.417 | 0.43 | 0.99 | 0.969 | 0.914 | 0.902 | 0.804
NCI-H2405 | 0.651 | 0.651 | 0.622 | 0.567 | 0.621 | 1.09 | 1.05 |  | 0.978 | 1.01 | 1.05 | 1.07 | 0.93 | 1.24 | 1.08 | 1.1 | 1.2 | 1.09 |  | 0.957
NCI-H3122 | 1.03 | 1.04 | 0.929 | 0.917 | 0.948 | 0.936 | 0.982 | 0.988 | 0.99 | 0.983 | 0.203 | 0.182 | 0.203 | 0.207 | 0.2 | 1.06 | 0.951 | 1.04 | 1 | 1.03
PC-3 [JPC-3] | 0.767 | 0.74 | 0.747 | 0.809 | 0.747 | 1.14 | 1.01 | 1.05 | 1.02 | 1.08 | 1.05 | 1.06 | 1.17 | 1.29 | 1.21 | 0.431 | 0.486 | 0.444 | 0.44 | 0.492
PC-14 | 0.956 | 0.798 | 0.755 | 0.837 | 0.711 | 0.973 | 0.936 | 0.941 | 0.942 | 1.09 | 0.127 | 0.135 | 0.152 | 0.154 | 0.133 | 0.361 | 0.304 | 0.316 | 0.363 | 0.423
